In PubChem BioAssay (NCI):
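Cultured in 96-well plates, cells were exposed to test compound for 48 hours across five concentrations. GI50: concentration for 50% inhibition of growth. TGI marks complete inhibition of growth.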

Columns and labels:
Experiment in all cases: NCI anticancer screen, dose series, 48 h
MDA-MB-231 breast = system: MDA-MB-231 breast
SK-MEL-28 melanoma = system: SK-MEL-28 melanoma
A549 NSCLC = system: A549 NSCLC
HT29 colon = system: HT29 colon
MCF7 breast = system: MCF7 breast
NCI/ADR-RES ovarian = system: NCI/ADR-RES ovarian
NCI-H23 lung = system: NCI-H23 lung
SN12C renal = system: SN12C renal
CAKI-1 renal = system: CAKI-1 renal
NCI-H522 lung = system: NCI-H522 lung

Row | SMILES | TGI (MDA-MB-231 breast) [µM] | TGI (SK-MEL-28 melanoma) [µM] | TGI (A549 NSCLC) [µM] | TGI (HT29 colon) [µM] | TGI (MCF7 breast) [µM] | TGI (NCI/ADR-RES ovarian) [µM] | TGI (NCI-H23 lung) [µM] | TGI (SN12C renal) [µM] | TGI (CAKI-1 renal) [µM] | TGI (NCI-H522 lung) [µM] | GI50 (NCI-H522 lung) [µM] | GI50 (MDA-MB-231 breast) [µM] | GI50 (HT29 colon) [µM] | GI50 (CAKI-1 renal) [µM]
1 | O=C(/C=C/c1ccc(/C=C/C(=O)c2ccc(O)cc2)cc1)c1ccc(O)cc1 | > 100 | > 100 | > 100 | > 100 | > 100 | > 100 | > 100 | > 100 | > 100 | – | – | – | – | –
2 | CN1CCC(CN2c3ccccc3Sc3ccccc32)CC1 | – | 23.1 | 28.4 | 25.3 | – | – | 30 | 33.9 | 18 | 28.3 | – | – | – | –
3 | CSCCCNC(=O)c1csc(-c2csc(C(CNC(=O)OC(C)(C)C)CNC(=O)OC(C)(C)C)n2)n1 | > 100 | – | – | – | > 100 | > 100 | > 100 | > 100 | > 100 | 94.5 | – | – | – | –
4 | Cc1ccc(O)c(-c2cc(-c3cccc(Cl)c3)c(C#N)c(N)n2)c1 | 54.4 | – | 43.4 | 58.3 | 42.7 | 90.4 | 77.6 | 47.6 | > 100 | 30 | – | – | – | –
5 | c1ccc2c(c1)ncn2C1CCCCO1 (stereo not drawn) | > 100 | > 100 | > 100 | > 100 | > 100 | > 100 | > 100 | > 100 | – | > 100 | – | – | – | –
6 | COc1cc(C2C(C(=O)O)=C(COC(C)=O)Oc3cc4c(cc32)OCO4)cc(OC)c1OC (stereo not drawn) | – | > 100 | > 100 | > 100 | – | – | > 100 | > 100 | > 100 | – | – | – | – | –
7 | COC(=O)c1ccc(C)cc1/C=C1\Cc2ccc(C)cc2C1=O | – | 34.6 | 98.4 | 40.9 | 40.6 | > 100 | 99.4 | 32.9 | 94.3 | 45 | – | – | – | –
8 | O=C(Cc1nccc2c1[nH]c1ccccc12)OC1C#CCSCC#C/C=C\1 (stereo not drawn) | > 100 | > 100 | > 100 | > 100 | > 100 | > 100 | – | > 100 | > 100 | > 100 | – | – | – | –
9 | N#Cc1c(N)sc2c1-c1ccccc1OC2 | > 100 | > 100 | > 100 | > 100 | > 100 | > 100 | > 100 | 68.6 | – | – | – | – | – | –
10 | CN(C)c1ccc(C(Cc2ccc3ccccc3n2)Cc2ccc3ccccc3n2)cc1 | > 100 | – | – | > 100 | – | – | – | – | > 100 | > 100 | 3.4 | 5.41 | 3.83 | 2.2
11 | CN(C)c1nncc2[nH]cnc12 | > 100 | > 100 | > 100 | > 100 | > 100 | > 100 | > 100 | > 100 | > 100 | – | – | – | – | –
12 | N#CCCN(CCC#N)c1ccc(/C=C2\N=C(c3ccccc3)N(NC(N)=S)C2=O)cc1 | > 100 | > 100 | > 100 | > 100 | > 100 | > 100 | – | > 100 | > 100 | – | – | – | – | –
